# Reference: paper PMC11011246 (Cell, 2024)
# What was measured:
# C57BL/6 WT mice [1] = experiment: 4-week treatment/toxicity study in wildtype mice; format: in vivo, mouse; conditions: 10 mg/kg, vs vehicle
# [2] = 4-week GLP toxicity study; conditions: both, Wistar Han, rat, in vivo, po
# healthy male volunteers = experiment: First-in-human phase I trial, safety and tolerability; format: in vivo
# [3] = 4-week GLP toxicity study; conditions: both, beagle, dog, in vivo, po
# [4] = Pharmacokinetics of HRX215 in mice; format: in vivo, C57BL/6 wildtype mice; conditions: 30 mg/kg p.o.
# C57BL/6 WT mice [5] = experiment: Partial hepatectomy in wildtype mice; conditions: 48 h after partial hepatectomy
# C57BL/6 WT mice [6] = experiment: Short-term GAN-NASH model; format: in vivo, mouse; conditions: 10 mg/kg daily, 12 weeks, vs vehicle
# [7] = system: NrasG12V Cdkn2aARF-/- HCC cells; experiment: HCC cell proliferation and trypan blue cell death; format: cell-based, murine; conditions: HRX215 10 μM vs DMSO, up to 72 h
# [8] = First-in-human phase I trial, pharmacokinetics; format: in vivo; conditions: for Tmax: male, plasma, oral, 50 mg, 50 mg single dose
# [9] = system: NrasG12V Trp53-/- HCC cells; experiment: HCC cell proliferation and trypan blue cell death; format: cell-based, murine; conditions: HRX215 10 μM vs DMSO, up to 72 h
# [10] = IND-enabling GLP safety pharmacology; format: in vivo, rats, dogs; conditions: GLP studies
# C57BL/6 WT mice [11] = experiment: Long-term GAN-NASH HCC model; format: in vivo, mouse
# pigs = experiment: 85% hepatectomy; format: in vivo, pig
# C57BL/6 WT mice [12] = experiment: CCl4 liver-damage; conditions: 10 mg/kg p.o., CCl4 3 weeks, 48 h after PH
# C57BL/6 WT mice [13] = experiment: Short-term CCl4 liver damage model; format: in vivo, mouse; conditions: 0.4, 2, 10 mg/kg p.o., 48 h after CCl4, vs vehicle
compound,measurement,setting,value
CCCS(=O)(=O)Nc1c(F)ccc(C(=O)c2n[nH]c3ncc(-c4ccncc4)cc23)c1F [HRX215],complete blood counts,C57BL/6 WT mice [1]; 4 weeks,No significant changes were detected
same,untargeted metabolomics of plasma and liver,C57BL/6 WT mice [1],no safety relevant changes were detected
same,NOAEL at 4 weeks,[2],300 mg/kg/day
same,"mild to moderate adverse effects, percentage","healthy male volunteers; HRX215 groups, n = 36",36.1%
same,number of mild to moderate adverse effects (subjects/group),"healthy male volunteers; HRX215 groups, n = 36",13/36
same,severe or serious adverse events,healthy male volunteers; single and multiple doses 5-500 mg,no severe or serious adverse events were reported
same,complete blood counts,healthy male volunteers; vs placebo,no significant differences
same,NOAEL at 4 weeks,[3],250 mg/kg/day
same,"t(1/2), elimination half-life",[4],3.4 to 3.9 h
same,proliferating hepatocytes (Ki67),C57BL/6 WT mice [5]; 0.4 mg/kg p.o.,15.38%
same,proliferating hepatocytes (Ki67),C57BL/6 WT mice [5]; 2 mg/kg p.o.,15.15%
same,proliferating hepatocytes (Ki67),C57BL/6 WT mice [5]; 10 mg/kg p.o.,26.3%
same,numbers of senescent cells in NASH livers,C57BL/6 WT mice [6],found no differences
same,cell proliferation,[7],significantly reduced cell proliferation
same,exposure (Cmax and AUC) versus dose,[8]; ascending doses,increased proportionally with ascending doses
same,Tmax,[8]; fasting,1.2 h
same,Tmax,[8]; fed,3.9 h
same,cell proliferation,[9],significantly reduced cell proliferation
same,"effect on the cardiovascular, neurological, or respiratory system",[10],absence of any effect
same,hepatic inflammation and hepatocyte ballooning,"C57BL/6 WT mice [11]; 10 mg/kg daily, 12 weeks",no reduction of hepatic inflammation and hepatocyte ballooning
same,hepatocyte proliferation (Ki67),"C57BL/6 WT mice [11]; 10 mg/kg daily, 12 weeks",slightly increased hepatocyte proliferation
same,liver fibrosis,"C57BL/6 WT mice [11]; 10 mg/kg daily, 12 weeks","found reduced in HRX215 treated livers, but results missed statistical significance"
same,overall hepatic lipid content,"C57BL/6 WT mice [11]; 10 mg/kg daily, 12 weeks",significant reduction of the overall hepatic lipid content
same,tumor size,"C57BL/6 WT mice [11]; 10 mg/kg daily, 12 weeks",tendency toward a reduction of tumor size
same,number of tumor nodules per liver,"C57BL/6 WT mice [11]; 10 mg/kg daily, 12 weeks, vs baseline and vehicle",did not result in a higher number of tumor nodules per liver
same,numbers of dysplastic premalignant lesions,"C57BL/6 WT mice [11]; 10 mg/kg daily, 12 weeks, vs vehicle",did not reveal significant differences
same,NAS score development,C57BL/6 WT mice [11]; non-tumor bearing liver parts,more animals with an improved NAS score and less animals with a worsened NAS score
same,aspartate aminotransferase,"pigs; pigs, 85% hepatectomy",only transiently increased after surgery
same,bilirubin plasma levels,"pigs; pigs, 85% hepatectomy",only a transient rise with a subsequent drop
same,intracranial pressure (ICP) after surgery,"pigs; pigs, 85% hepatectomy",did not show an increase in ICP values
same,plasma ammonia,"pigs; pigs, 85% hepatectomy",prevented an increase of plasma ammonium
same,animals with normal behavior that survived,pigs; post-surgery treatment group (start 12 h after surgery),5 out of 6
same,animals with normal behavior that survived,pigs; pre-surgery treatment group (start 12 h before surgery),4 out of 6
same,hepatocyte proliferation upon partial hepatectomy in fibrotic livers,C57BL/6 WT mice [12],enhance hepatocyte proliferation
same,hepatocyte death (TUNEL),C57BL/6 WT mice [13],significantly reduced hepatocyte death
